Experimental data reported in patent US20140329903A1, “TREATMENT OF NEURODEGENERATIVE DISEASES” (ACADIA PHARMACEUTICALS INC., priority 2011, published 2014).
Values joined by “and” are separate entries in the source; they are usually repeats but may differ in a detail not shown here. Equal entries are not always repeated. “Also recorded” adds a separate entry of the source. Where two headings read alike, the source gives them in different places.

Experiments:
[1] = test system: 6-hydroxydopamine (6OHDA) lesions of the substantia nigra pars compacta (SNc); experiment: 6OHDA lesion of the SNc, bexarotene s.c. continuous infusion after lesion; type: in vivo, rats; conditions: for Effective in rat PD model?: 6OHDA lesioning of the substantia nigra
Experimental: The endpoints assessed were: • Neuroprotection measured by tyrosine hydroxylase (TH) and ret-c (co-receptor for the trophic factor GDNF) staining in the substantia nigra (SNc). • Behavioral assessments including rotorod, challenging beam, and spontaneous locomotion
Following the 28 days of treatment, animals were assessed in 3 tests of coordinated motor function (spontaneous locomotion, rotorod and challenging beam) and then tissue was collected to assess tyrosine hydroxylase and Ret-c immunofluorescence in the substantia nigra.
The Subjects and Surgical Procedures to Produce Lesions were as Described Above for i.c.v. Dosing.
They were then incubated in 0.9% physiological saline at 37° C. until surgically implanted. The pumps infused at a rate of […] for 28 days after implantation. […] After completion of the experiment, a subset of the osmotic pumps was removed. The pumps were weighed and aspirated in order to verify compound delivery.
Spontaneous Locomotion, rotorod, and challenging beam tests were conducted as described above for i.c.v. dosing.
Tyrosine Hydroxylase Fluorescent Immunohistochemistry was conducted as described above for i.c.v. dosing. Ret-c immunohistochemistry was conducted using brains fixed and SNc tissue sectioned as described above. […] Ret-c sections were then mounted on and imaged as described above for immunohistochemistry performed on TH.

[2] = test system: NGFI-B response element, NBRE; experiment: Reporter gene transcription assay pNBRE; type: cell-based
Excerpt: We have enabled assays to detect ligand-induced gene transcription (reporter gene assays) in order to confirm results obtained in BRET2 assays.

6OHDA lesion of the SNc = experiment: Neuron regeneration after 6OHDA lesion, compared with Day 3; type: in vivo, rats; conditions: 1 mM, 0.25 μL/hr i.c.v. for 28 days beginning 72 hours after 6OHDA lesion
Experimental: . […]. […]. Data were analyzed with one-way ANOVAs followed by post hoc Tukey's multiple comparisons test. * indicates a significant difference from Sham, p<0.05; + indicates a significant difference from vehicle/6OHDA, p<0.05; ´ indicates a significant difference from Day 3, p<0.05.

[3] = test system: 6-OHDA induced neuronal loss; experiment: Protection against 6-OHDA induced neuronal loss, microinjection above the SNc; type: in vivo, Sprague-Dawley rats; conditions: 3 daily microinjections, 1 μL of 10 μM
Excerpt: Their brains were fixed, sectioned through the SNc and labeled for tyrosine hydroxylase. Bilateral serial sections (3/side, −5.2 mm from bregma) were photographed and analyzed for the number of TH+ neurons and the % of the section that was immunopositive.

[4] = test system: rat primary dopaminergic neurons; experiment: Restorative effect after MPP+ injury in primary mesencephalic cultures; type: cell-based
Experimental: BDNF was used as a positive control in this study.
Rat dopaminergic neurons were cultured as described by Schinelli et al., 1988. Briefly pregnant female rats of 15 days gestation were killed by cervical dislocation (Rats Wistar; Janvier) and the foetuses removed from the uterus. The embryonic midbrains were removed and placed in ice-cold medium of Leibovitz (L15; PAN) containing 2% of Penicillin-Streptomycin (PS; Invitrogen) and 1% of bovine serum albumin (BSA; PAN). Only the ventral portions of the mesencephalic flexure were used for the cell preparations as this is the region of the developing brain rich in dopaminergic neurons. The midbrains were dissociated by trypsinisation for 20 min at 37° C. (Trypsin EDTA 1×; PAN) diluted in PBS without calcium and magnesium. The reaction was stopped by the addition of Dulbecco's modified Eagle's medium (DMEM; PAN) containing DNAase I grade II (0.5 mg/ml; PAN) and 10% of fetal calf serum (FCS; Gibco). Cells were then mechanically dissociated by 3 passages through a 10 ml pipette. Cells were then centrifuged at 180×g for 10 min at +4° C. on a layer of BSA (3.5%) in L15 medium. The supernatant was discarded and the cells of pellet were re-suspended in a defined culture medium consisting of Neurobasal (Gibco) supplemented with B27 (2%; Gibco), L-glutamine (0.2 mM; Invitrogen) 2% of PS solution and 10 ng/ml BDNF (PAN) and 1 ng/ml GDNF. (PAN) Viable cells were counted in a Neubauer cytometer using the trypan blue exclusion test. The cells were seeded at a density of 40000 cells/well in 96 well-plates (wells were pre-coated with poly-L-lysine (greiner) and were cultured at 37° C. in a humidified air (95%)/CO2 (5%) atmosphere. Half of the medium was changed every 2 days with fresh medium.
Briefly, on day 6 of culture, the medium was removed and fresh medium was added, without or with MPP+ at 4 μM. […] In all wells, the final concentrations were in 0.1% DMSO. After permeabilization with 0.1% saponin (Sigma), cells were incubated with mouse monoclonal primary against tyrosine hydroxylase antibody (TH, Sigma) to stain specifically dopaminergic neurons. […] The number of TH neurons and total neurite of TH neurons were measured in each well.
For each condition, 2×10 pictures per well were taken in the same condition using InCell Analyzer™ 1000 (GE Healthcare) with 10× magnification. The analyses were automatically done using developer software (GE Healthcare) to measure the total number of TH positive neurons. Two means of 10 pictures were automatically performed by well. Data were expressed in percentage of control condition. […]
For each condition, 10 pictures per well were taken in the same condition using InCell Analyzer™ 1000 (GE Healthcare) with 10× magnification. […] 6 wells per conditions were analyzed. […]

[5] = test system: cancer cell lines HN9N and HN21P; conditions: cited from earlier work
[6] = NDA #21055, cited from earlier work
[7] = human, plasma, po

C=C(c1ccc(C(=O)O)cc1)c1cc2c(cc1C)C(C)(C)CCC2(C)C [Bexarotene, bexarotene]
Ret-c in the SNc (cell counts, percent immunopositive image, mean pixel intensity) ([1]; 1 mg/kg/day s.c. beginning 72 hours after 6OHDA lesion, vs vehicle): significantly improved | tyrosine hydroxylase immunofluorescence in the SNc ([1]; 1, 0.25, 0.0625 and 0.021 mg/kg/day s.c. beginning 72 hours after 6OHDA lesion, vs vehicle): significantly improved; also recorded: improved tyrosine hydroxylase and Ret-c expression | motor performance (challenging beam, rotorod, spontaneous locomotion) after 6OHDA ([1]; 1, 0.25, 0.0625 and 0.021 mg/kg/day s.c. for 28 days beginning 72 hours after lesion): not impaired relative to Sham controls; also recorded: reversed behavioral deficits | Effective in rat PD model? ([1]; s.c. 0.06 mg/kg/day): No | Effective in rat PD model? ([1]; s.c. 0.25 mg/kg/day, 0.25 mg/kg/day): effectively reversed behavioral deficits and regenerated neurons and Yes | Effective in rat PD model? ([1]; s.c. 1 mg/kg/day): Yes | Effective PD dose (rat), s.c. ([1]; s.c. continuous infusion, 6OHDA lesion model, listed as Targretin): 0.25 mg/kg/day | EC50 [2]: 20 nM | Eff % ([2]; pNBRE, normalized to the response of 9-cis retinoic acid): 28% | number of TH positive cells, cell size and colocalization of TH and Neurotrace, vs Lesion/Veh (6OHDA lesion of the SNc): significantly improved | same TH measures compared with animals sacrificed 3 days after lesion (start of treatment) (6OHDA lesion of the SNc): significantly improved | loss of dopaminergic cells induced by 6-OHDA (TH+ neurons, % immunopositive) [3]: completely prevented the loss of dopaminergic cells | neurotrophic effect compared with BDNF ([4]; 300 nM, after 24 h MPP+ 4 μM): as high as the one of BDNF | length of TH neurite ([4]; 100 and 300 nM, after 24 h MPP+ 4 μM): significant effect | total number of TH neurons ([4]; all tested concentrations (0.3-300 nM), 48 h, applied after 24 h MPP+ 4 μM): increase | tumor growth in nude mice injected with HN9N and HN21P ([5]; 60 mg/kg/day oral, NDA #21055): effective in preventing tumor growth | Effective anti-cancer dose (mice) ([5]; oral, Targretin NDA #21055): 60 mg/kg/day (mice) | plasma AUC ([6]; p.o. 3 mg/kg/day): 4.4 µM·h | plasma AUC ([6]; p.o. 10 mg/kg/day): 14.1 µM·h | plasma AUC ([6]; p.o. 30 mg/kg/day, 30 mg/kg/day): 24.3 μM * hr and 24 μM*hr μM * hr and 24 μM * hr | plasma AUC ([6]; p.o. 100 mg/kg/day, 100 mg/kg/day): 42.1 μM * hr and 42 μM*hr μM * hr and 42 μM * hr | AUC [7]: 0.7 to 1.3 µM·h
